Measured values: patent publication US11851391B2, “Antifungal compounds and methods of forming the same” (University of Kentucky Research Foundation, priority 2018, dated 2023)
Values after ≈ are worked out from the molar mass of the structure shown. Read-outs that look alike come from different tables or passages of the source.

Tests used:
[1] = system: Candida albicans ATCC 10231(R) (strain A); test: MIC determination, in vitro antifungal assay (CLSI M27-A3); type: cell-based; details: MIC-0 (no visible growth), 48 h at 35° C.
Description: (§1) The activity of N,N′-diaryl-bishydrazones 7-22 was tested against a panel of seven strains of C. albicans: ATCC 10231(R) (A), ATCC 64124(R) (B), ATCC MYA-2876(S) (C), ATCC 90819(R) (D), ATCC MYA-2310(S) (E), ATCC MYA-1237(R) (F), and ATCC MYA-1003(R) (G). The activity of these bishydrazones 7-22 was also explored against a panel of three non-albicans Candida strains: C. glabrata ATCC 2001 (H), C. krusei ATCC 6258 (I), and C. parapsilosis ATCC 22019 (J). Finally, the activity of these bishydrazones 7-22 was explored against three Aspergillus strains: A. flavus ATCC MYA-3631 (K), A. nidulans ATCC 38163 (L), and A. terreus ATCC MYA-3633 (M).
(§2) Candida albicans ATCC 10231 (A), C. albicans ATCC 64124 (B), and C. albicans ATCC MYA-2876 (C) were kindly provided by Dr. Jon Y. Takemoto (Utah State University, Logan, UT, USA). C. albicans ATCC 90819 (D), C. albicans ATCC MYA-2310 (E), C. albicans ATCC MYA-1237 (F), C. albicans ATCC MYA-1003 (G), Candida glabrata ATCC 2001 (H), Candida krusei ATCC 6258 (I), Candida parapsilosis ATCC 22019 (J), Aspergillus flavus ATCC MYA-3631 (K), and Aspergillus terreus ATCC MYA-3633 (M) were obtained from the American Type Culture Collection (ATCC; Manassas, VA, USA). Aspergillus nidulans ATCC 38163 (L) was received from Dr. Jon S. Thorson (University of Kentucky, Lexington, KY, USA). Filamentous fungi and yeasts were cultivated at 35° C. in RPMI 1640 medium (with 1-glutamine, without sodium biocarbonate, Sigma-Aldrich, St. Louis, MO) buffered to a pH of 7.0 with 0.165 M morpholinepropanesulfonic acid (MOPS) buffer (Sigma-Aldrich).
(§3) The MIC values of compounds 7a-24c against yeast cells (strains A-J) were determined in 96-well plates as described in the CLSI document M27-A3 with minor modifications. A single colony of freshly prepared yeast cells was used to inoculate 5 mL of yeast extract peptone dextrose (YPD) broth prior to incubation overnight with shaking at 200 rpm at 35° C. From the actively growing yeast culture, 100 μL were then transferred to 900 μL of sterile ddH2O and re-adjusted to achieve OD600 of 0.12 (˜1×10^6 CFU/mL). The cell suspension was further diluted to achieve 2-4×10^3 CFU/mL in RPMI 1640 medium. […] The final concentration of DMSO was ensured to be <1.25% in all experiments. The MIC values for compounds 7a-24c and CAS were defined as the minimum drug concentration that yielded complete inhibition (also known as MIC-0).

[2] = system: Candida parapsilosis ATCC 22019 (strain J); test: as above; type: cell-based; details: strain J, MIC-0, 48 h at 35° C.
Description: as §1, §2, §3

[3] = system: C. albicans ATCC 64124(R) (strain B); test: as above; type: cell-based, Candida albicans; details: strain B, MIC-0, 48 h at 35° C.
Description: as §1, §2, §3

[4] = system: C. albicans ATCC 90819(R) (strain D); test: as above; type: cell-based, Candida albicans; details: Candida albicans, ATCC90819, 48 h, MIC-0, 48 h at 35° C., read-out: MIC
Description: as §1, §2, §3

[5] = system: C. albicans ATCC MYA-1237(R) (strain F); test: as above; type: cell-based, Candida albicans; details: MIC-0, 48 h at 35° C.
Description: as §1, §2, §3

[6] = system: C. albicans ATCC MYA-2310(S) (strain E); test: as above; type: cell-based, Candida albicans; details: MIC-0, 48 h at 35° C.
Description: as §1, §2, §3

[7] = system: C. albicans ATCC MYA-1003(R) (strain G); test: as above; type: cell-based, Candida albicans; details: Candida albicans, 48 h, MIC-0, 48 h at 35° C., read-out: MIC
Description: as §1, §2
(§4) A single colony of freshly prepared yeast cells was used to inoculate 5 mL of yeast extract peptone dextrose (YPD) broth prior to incubation overnight with shaking at 200 rpm at 35° C. From the actively growing yeast culture, 100 μL were then transferred to 900 μL of sterile ddH2O and re-adjusted to achieve OD600 of 0.12 (˜1×10^6 CFU/mL). The cell suspension was further diluted to achieve 2-4×10^3 CFU/mL in RPMI 1640 medium. […] The final concentration of DMSO was ensured to be <1.25% in all experiments.

[8] = system: C. albicans ATCC MYA-2876(S) (strain C); test: as above; type: cell-based, Candida albicans; details: MIC-0, 48 h at 35° C.
Description: as §1, §2, §4

[9] = system: Candida glabrata ATCC 2001 (strain H); test: as above; type: cell-based; details: MIC-0, 48 h at 35° C.
Description: as §1, §2, §4

[10] = system: Candida krusei ATCC 6258 (strain I); test: as above; type: cell-based; details: MIC-0, 48 h at 35° C.
Description: as §1, §2, §4

[11] = system: Aspergillus flavus ATCC MYA-3631 (strain K); test: MIC determination against filamentous fungi (CLSI M38-A2); type: cell-based; details: Aspergillus flavus, 48 h, MIC-0, 48 h at 35° C., read-out: MIC
Description: as §1, §2
(§5) Similarly, the MIC values of compounds 7a-24c, as well as that of the two control drugs against filamentous fungi (strains K-M) were determined as previously described in CLSI document M38-A2. Spores were harvested from sporulating cultures growing on potato dextrose agar (PDA) by filtration through sterile glass wool and enumerated by using a hemocytometer to obtain the desired inoculum size. […] Spore suspensions were added to the wells to afford a final concentration of 5×10^5 CFU/mL. The plates were incubated at 35° C. for 48 h. The MIC values of compounds 7a-24c and CAS against filamentous fungi were based on the complete inhibition of growth when compared to the growth control (MIC-0). […] Each test was performed in triplicate.

[12] = system: Aspergillus nidulans ATCC 38163 (strain L); test: as above; type: cell-based; details: Aspergillus nidulans, ATCC38163, 48 h, MIC-0, 48 h at 35° C., read-out: MIC
Description: as §1, §2, §5

[13] = system: Aspergillus terreus ATCC MYA-3633 (strain M); test: as above; type: cell-based; details: Aspergillus terreus, 48 h, MIC-0, 48 h at 35° C., read-out: MIC
Description: as §1, §2, §5

[14] = Candida albicans, ATCC10231, 48 h, read-out: MIC
[15] = Lodderomyces parapsilosis, ATCC22019, 48 h, read-out: MIC
[16] = Candida albicans, ATCC64124, 48 h, read-out: MIC
[17] = Candida albicans, 48 h, read-out: MIC
[18] = Nakaseomyces glabratus, ATCC2001, 48 h, read-out: MIC
[19] = Pichia kudriavzevii, ATCC6258, 48 h, read-out: MIC

| Structure (SMILES) | MIC [1, 14] | MIC [2, 15] | MIC [3, 16] | MIC [4] | MIC [5, 17] | MIC [6, 17] | MIC [7] | MIC [8, 17] | MIC [9, 18] | MIC [10, 19] | MIC [11] | MIC [12] | MIC [13] | other results |
| --- | --- | --- | --- | --- | --- | --- | --- | --- | --- | --- | --- | --- | --- | --- |
| N=C(N)N/N=C/c1ccc(-c2ccc(/C=N/NC(=N)N)cc2)cc1 [Compound 24b] | 31.3 µg/mL (≈ 97.1 µM) | 3.9 µg/mL (≈ 12.1 µM) | > 31.3 µg/mL | > 31.3 µg/mL | > 31.3 µg/mL | > 31.3 µg/mL | 15.6 µg/mL (≈ 48.4 µM) | > 31.3 µg/mL | > 31.3 µg/mL | 15.6 µg/mL (≈ 48.4 µM) | > 31.3 µg/mL | > 31.3 µg/mL | > 31.3 µg/mL | – |
| Fc1ccc(F)c(N/N=C/c2ccc(-c3cccc(/C=N/Nc4cc(F)ccc4F)c3)cc2)c1 [Compound 21a] | > 31.3 µg/mL | > 31.3 µg/mL | > 31.3 µg/mL | > 31.3 µg/mL | > 31.3 µg/mL | > 31.3 µg/mL | > 31.3 µg/mL | > 31.3 µg/mL | > 31.3 µg/mL | > 31.3 µg/mL | > 31.3 µg/mL | > 31.3 µg/mL | > 31.3 µg/mL | – |
| Brc1ccc(N/N=C/c2ccc(-c3cccc(/C=N/Nc4ccc(Br)cc4)c3)cc2)cc1 [Compound 19a] | 31.3 µg/mL (≈ 57.1 µM) | > 31.3 µg/mL | 31.3 µg/mL (≈ 57.1 µM) | > 31.3 µg/mL | 7.8 µg/mL (≈ 14.2 µM) | > 31.3 µg/mL | 31.3 µg/mL (≈ 57.1 µM) | 31.3 µg/mL (≈ 57.1 µM) | 7.8 µg/mL (≈ 14.2 µM) | > 31.3 µg/mL | 31.3 µg/mL (≈ 57.1 µM) | > 31.3 µg/mL | > 31.3 µg/mL | MIC [5]: 7.8 µg/mL (≈ 14.2 µM); MIC [9]: 7.8 µg/mL (≈ 14.2 µM) |
| C/C(=N\NC(=N)N)c1ccc(-c2ccc(/C(C)=N/NC(=N)N)cc2)cc1 [Compound 24c] | 3.9 µg/mL (≈ 11.1 µM) | 1.95 µg/mL (≈ 5.56 µM) | 3.9 µg/mL (≈ 11.1 µM) | 3.9 µg/mL (≈ 11.1 µM) | 15.6 µg/mL (≈ 44.5 µM) | 15.6 µg/mL (≈ 44.5 µM) | 15.6 µg/mL (≈ 44.5 µM) | 15.6 µg/mL (≈ 44.5 µM) | 7.8 µg/mL (≈ 22.3 µM) | 3.9 µg/mL (≈ 11.1 µM) | > 31.3 µg/mL | 15.6 µg/mL (≈ 44.5 µM) | > 31.3 µg/mL | – |
| Fc1ccc(F)c(N/N=C/c2ccc(-c3ccc(/C=N/Nc4cc(F)ccc4F)cc3)cc2)c1 [Compound 21b] | 31.3 µg/mL (≈ 67.7 µM) | > 31.3 µg/mL | > 31.3 µg/mL | > 31.3 µg/mL | > 31.3 µg/mL | > 31.3 µg/mL | > 31.3 µg/mL | > 31.3 µg/mL | > 31.3 µg/mL | > 31.3 µg/mL | > 31.3 µg/mL | > 31.3 µg/mL | > 31.3 µg/mL | – |
| Fc1ccccc1N/N=C/c1ccc(-c2ccc(/C=N/Nc3ccccc3F)cc2)cc1 [Compound 10b] | 3.9 µg/mL (≈ 9.14 µM) | > 31.3 µg/mL | > 31.3 µg/mL | 31.3 µg/mL (≈ 73.4 µM) | > 31.3 µg/mL | > 31.3 µg/mL | 15.6 µg/mL (≈ 36.6 µM) | 15.6 µg/mL (≈ 36.6 µM) | > 31.3 µg/mL | 3.9 µg/mL (≈ 9.14 µM) | > 31.3 µg/mL | 31.3 µg/mL (≈ 73.4 µM) | > 31.3 µg/mL | – |
| Fc1ccccc1N/N=C/c1ccc(-c2cccc(/C=N/Nc3ccccc3F)c2)cc1 [Compound 10a] | 7.8 µg/mL (≈ 18.3 µM) | 15.6 µg/mL (≈ 36.6 µM) | 7.8 µg/mL (≈ 18.3 µM) | 15.6 µg/mL (≈ 36.6 µM) | > 31.3 µg/mL | 31.3 µg/mL (≈ 73.4 µM) | 7.8 µg/mL (≈ 18.3 µM) | > 31.3 µg/mL | > 31.3 µg/mL | 1.95 µg/mL (≈ 4.57 µM) | 3.9 µg/mL (≈ 9.14 µM) | 7.8 µg/mL (≈ 18.3 µM) | > 31.3 µg/mL | – |
| COc1cccc(N/N=C(\C)c2ccc(-c3ccc(/C(C)=N/Nc4cccc(OC)c4)cc3)cc2)c1 [Compound 11c] | 0.98 to 3.9 µg/mL (≈ 2.05 to 8.15 µM) | 15.6 µg/mL (≈ 32.6 µM) | 0.98 to 3.9 µg/mL (≈ 2.05 to 8.15 µM) | 31.3 µg/mL (≈ 65.4 µM) | 31.3 µg/mL (≈ 65.4 µM) | 15.6 µg/mL (≈ 32.6 µM) | – | 15.6 µg/mL (≈ 32.6 µM) | 15.6 µg/mL (≈ 32.6 µM) | 0.98 to 3.9 µg/mL (≈ 2.05 to 8.15 µM) | > 31.3 µg/mL | > 31.3 µg/mL | > 31.3 µg/mL | MIC [1]: 0.98 µg/mL (≈ 2.05 µM); MIC [2]: 15.6 µg/mL (≈ 32.6 µM); MIC [3]: 0.98 µg/mL (≈ 2.05 µM); MIC [6]: 15.6 µg/mL (≈ 32.6 µM); MIC [8]: 15.6 µg/mL (≈ 32.6 µM); MIC [9]: 15.6 µg/mL (≈ 32.6 µM); MIC [10]: 0.98 µg/mL (≈ 2.05 µM) |
